Key:
[1] = test system: human melanoma cell line HT-144; experiment: Antitumor test, human melanoma HT-144 in NMRI nude mice; format: in vivo, mouse; conditions: 25 mg/kg subcutaneously twice a week
Method: Five- to 6-week-old female NMRI nude mice having a body weight of 22 to 26 g after acclimation were used. The mice were placed in individually ventilated cages (IVC, 4 mice at maximum per cage) which were kept at room temperature and a constant humidity. After randomization, the body weights of the mice were measured every other day, and the behaviors of the animals were recorded every day.
5×10^6 cells of a human melanoma cell line HT-144 (HTB-63) from ATCC were suspended in a solution prepared from 50 uL of PBS and Matrigel (PBS: PAA #H21-002, Matrigel: BD #354230) mixed at a ratio of 1:1, and subcutaneously transplanted to the right side area of the body of each NMRI nude mouse using a 29 G needle.
The measurement of the body weights and the tumor sizes and the measurement and calculation of the tumor volumes were carried out in the same manner as Test Example 6.
At Day 22 when the tumor size reached about 150 mm^3, 80 animals were randomly divided into 8 groups on the basis of their tumor sizes. At the same day, U1-59 or the antibody-drug conjugate (3), (10), or (13) or PBS for a control group were administered into the tail vein of each animal at the following doses.
Administration group: PBS was intravenously injected once a week at the same dose as the antibody-drug conjugate.
Administration group: U1-59 was subcutaneously injected twice a week at 25 mg/kg. […]

HER3 = HER3 (Homo sapiens, UniProt P21860); experiment: HER3 binding affinity by flow cytometry on HCC1569 cells; set-up: host or cells: HCC1569 (human breast cancer cell line); conditions: read-out: Kd (nM), equilibrium binding affinity
Method: A human breast cancer cell line HCC1569 (CRL-2330) from ATCC was cultured in an RPMI1640 medium (purchased from Invitrogen Corp., containing 10% […] (manufactured by Invitrogen Corp.) and 2 mM L-glutamine (manufactured by Invitrogen Corp.)). The cells were dissociated from the culture plate using ACCUTASE® SOLUTION (Millipore Corp., SCR005) or EDTA (5 mM, phosphate buffered saline (PBS, 137 mM sodium chloride, 2.7 mM potassium chloride, 1.47 mM potassium dihydrogen phosphate, and 10.5 mM disodium hydrogen phosphate)), and the number of living cells was measured by trypan blue treatment. The same numbers of cells suspended in a fluorescence-activated cell sorting (FACS) buffer (PBS containing 3% FBS and 0.004% sodium azide) were inoculated to 96-well U-bottom plates, and the cells were precipitated by centrifugation and suspended in 100 uL of an ice-cooled antibody or antibody-drug conjugate dilution or FACS buffer. […]
U1-59, the antibody-drug conjugate (3), the antibody-drug conjugate (10), or the antibody-drug conjugate (13) was evaluated as the antibody or the antibody-drug conjugates. […]
Fluorescence signals from living cells were evaluated using Accuri C6 Flow cytometer (BD Biosciences/Accuri® Cytometers Inc., serial number 1424) and CFlow software (CFlow sampler Version 1.0.264.13). […]

Kd (HER3): 1.6 nM
Substance: U1-59: anti-HER3 human antibody; heavy and light chain variable regions SEQ ID NOs: 70 and 72; produced per WO 2007/077028
day after transplantation at which group was euthanized because tumor sizes exceeded acceptable maximum level [1]: 52 days
